Among the data in US8148391B2 (Cephalon, Inc., priority 2006, dated 2012) are IC50 values, retold here.

Where two headings read alike, the source gives them in different places.

The target in experiment [1] is T1, baculovirus-expressed ALK (Homo sapiens, UniProt Q9UM73).
T1 construct: host or cells: baculovirus expression system
Nature of the experiment: ALK Kinase Assay (ELISA-type, time-resolved fluorescence). The class given is biochemical. In short, it runs like this: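 Substrate coating: phospholipase C-γ, 10 μg/mL in TBS. Kinase step: 30 ng/ml ALK, 15 min, 37° C. Detection and analysis: Eu-N1 PT66 antibody, with IC50 fitted as a sigmoidal variable-slope dose-response curve.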
(ELISA stands for enzyme-linked immunosorbent assay.)

Experiment [2] addresses T2, c-Met (cytoplasmic domain) (Homo sapiens, UniProt P08581).
T2 construct: 10 ng/mL c-Met (cytoplasmic domain, Invitrogen Corporation #PV3143); purchased Invitrogen Corporation PV3143
Description: c-Met Kinase Assay (same methods as for ALK, with modifications). It is filed as biochemical. A digest of the protocol:
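This plate-based kinase format uses immobilized phospholipase C-γ as substrate, phosphorylated by c-Met cytoplasmic domain (10 ng/mL) at 37° C for 15 minutes.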

The mark [3] stands for this setting: ALK kinase inhibition, 1 μM ATP, read-out: ALK Activity.
Setting [4] is: c-Met kinase inhibition, 1 μM ATP, read-out: cMet Activity.
Where [5] appears, read: 1 μM ATP (Km level), 30 ng/ml ALK, 37° C., 15 minutes, read-out: ALK Activity (ALK kinase inhibition, IC50 class).
Where [6] appears, read: 1 μM ATP (Km level), 10 ng/mL c-Met, read-out: cMet Activity (c-Met kinase inhibition, IC50 class).
Setting [7] is: ALK kinase inhibition, 1 μM ATP (Km level), read-out: ALK Activity.
The mark [8] stands for this setting: c-Met kinase inhibition, 1 μM ATP (Km level), read-out: cMet Activity.
[9] abbreviates: 1 μM ATP (Km level), read-out: ALK Activity (ALK Kinase Inhibition, IC50).
Setting [10] is: 1 μM ATP (Km level), read-out: cMet Activity (c-Met Kinase Inhibition, IC50).

T1 sequence (Q9UM73 19-1620): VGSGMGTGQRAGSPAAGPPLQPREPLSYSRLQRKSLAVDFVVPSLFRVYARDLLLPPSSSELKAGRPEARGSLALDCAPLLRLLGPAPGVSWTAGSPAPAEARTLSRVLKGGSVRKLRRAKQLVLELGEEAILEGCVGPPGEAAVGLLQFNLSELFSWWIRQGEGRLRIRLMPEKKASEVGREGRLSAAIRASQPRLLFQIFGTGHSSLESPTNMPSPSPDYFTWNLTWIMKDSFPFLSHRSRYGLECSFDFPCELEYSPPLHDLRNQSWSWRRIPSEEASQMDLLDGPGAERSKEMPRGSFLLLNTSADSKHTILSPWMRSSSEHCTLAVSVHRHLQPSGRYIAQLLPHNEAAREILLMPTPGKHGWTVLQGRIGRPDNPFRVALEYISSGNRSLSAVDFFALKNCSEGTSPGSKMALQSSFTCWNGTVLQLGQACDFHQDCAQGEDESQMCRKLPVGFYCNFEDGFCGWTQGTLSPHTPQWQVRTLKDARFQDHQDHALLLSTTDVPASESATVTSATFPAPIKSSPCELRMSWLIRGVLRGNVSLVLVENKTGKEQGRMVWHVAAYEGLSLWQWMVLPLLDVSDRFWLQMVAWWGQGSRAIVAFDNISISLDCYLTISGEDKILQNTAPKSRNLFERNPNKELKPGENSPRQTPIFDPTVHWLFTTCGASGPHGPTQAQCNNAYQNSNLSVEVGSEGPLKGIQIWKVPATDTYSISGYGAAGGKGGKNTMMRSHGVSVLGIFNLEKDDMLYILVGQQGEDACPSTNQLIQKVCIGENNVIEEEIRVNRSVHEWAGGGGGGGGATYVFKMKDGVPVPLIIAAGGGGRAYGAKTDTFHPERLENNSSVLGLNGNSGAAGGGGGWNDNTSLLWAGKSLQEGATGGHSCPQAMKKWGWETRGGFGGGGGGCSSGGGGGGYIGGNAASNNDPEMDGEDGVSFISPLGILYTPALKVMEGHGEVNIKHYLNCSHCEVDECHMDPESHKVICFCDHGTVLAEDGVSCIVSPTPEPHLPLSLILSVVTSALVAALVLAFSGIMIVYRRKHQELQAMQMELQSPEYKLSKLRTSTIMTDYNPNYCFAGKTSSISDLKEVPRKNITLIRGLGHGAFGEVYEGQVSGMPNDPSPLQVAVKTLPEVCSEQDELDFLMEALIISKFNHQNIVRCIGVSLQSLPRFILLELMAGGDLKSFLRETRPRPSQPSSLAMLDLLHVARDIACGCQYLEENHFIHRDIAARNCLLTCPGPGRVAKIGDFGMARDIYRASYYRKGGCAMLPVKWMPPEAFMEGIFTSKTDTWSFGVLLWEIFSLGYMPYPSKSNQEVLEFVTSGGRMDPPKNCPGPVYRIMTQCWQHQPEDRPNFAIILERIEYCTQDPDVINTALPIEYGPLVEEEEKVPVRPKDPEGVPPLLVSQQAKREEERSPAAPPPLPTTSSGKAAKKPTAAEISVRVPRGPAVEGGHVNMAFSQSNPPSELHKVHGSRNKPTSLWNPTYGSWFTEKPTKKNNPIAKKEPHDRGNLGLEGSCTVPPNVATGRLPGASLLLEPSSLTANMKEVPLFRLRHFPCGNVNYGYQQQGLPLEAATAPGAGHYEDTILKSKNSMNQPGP
T2 sequence (P08581 956-1390 limits assumed): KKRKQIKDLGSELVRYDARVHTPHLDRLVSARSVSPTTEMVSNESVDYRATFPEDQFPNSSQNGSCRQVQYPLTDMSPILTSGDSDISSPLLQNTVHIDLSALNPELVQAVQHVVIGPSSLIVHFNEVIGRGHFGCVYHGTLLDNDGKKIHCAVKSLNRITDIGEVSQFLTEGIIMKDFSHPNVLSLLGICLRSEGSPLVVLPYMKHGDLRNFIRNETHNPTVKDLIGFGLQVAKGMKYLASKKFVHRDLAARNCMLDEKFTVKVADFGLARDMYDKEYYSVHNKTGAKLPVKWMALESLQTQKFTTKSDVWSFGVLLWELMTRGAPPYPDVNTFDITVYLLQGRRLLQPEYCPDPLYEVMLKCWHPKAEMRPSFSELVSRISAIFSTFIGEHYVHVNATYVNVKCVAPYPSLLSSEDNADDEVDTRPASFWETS

Consider `CCN1C(=O)CCCc2c1ccc(Nc1ncc(Cl)c(N[C@@H]3CCCC[C@H]3N(C)S(C)(=O)=O)n1)c2OC` [Example 1679, N-{(1R,2R)-2-[5-Chloro-2-(1-ethyl-6-methoxy-2-oxo-2,3,4,5-tetrahydro-1H-benzo[b]azepin-7-ylamino)-pyrimidin-4-ylamino]-cyclohexyl}-N-methyl-methanesulfonamide], for which the IC50 in experiment [1] (setting [3]) is 100 to 1000 nM; in experiment [2] (setting [4]), greater than 10000 nM.

As to `CC(=O)NCCOc1cccc(F)c1Nc1nc(Nc2ccc3c(c2)CCOC(=O)N3C)ncc1Cl` [Example 1782, N-(2-{2-[5-Chloro-2-(5-methyl-6-oxo-5,6,8,9-tetrahydro-7-oxa-5-aza-benzocyclohepten-2-ylamino)-pyrimidin-4-ylamino]-3-fluoro-phenoxy}-ethyl)-acetamide], the IC50 in experiment [1] (setting [3]) and in experiment [2] (setting [4]) was 1000 to 10000 nM each time.

`C#CCNC(=O)c1cccc(F)c1Nc1nc(Nc2ccc3c(c2)OCCCN3C(=O)OC(C)C)ncc1Cl` [Example 1433, 3-[5-Chloro-4-(2-fluoro-6-prop-2-ynylcarbamoyl-phenylamino)-pyrimidin-2-ylamino]-7,8-dihydro-6H-5-oxa-9-aza-benzocycloheptene-9-carboxylic acid isopropyl ester]: the IC50 in experiment [1] (setting [5]) and in experiment [2] (setting [6]) was 100 to 1000 nM in each case.

For `C#CCNC(=O)c1cccc(F)c1Nc1nc(Nc2ccc3c(c2)OCC(O)(CO)CN3CC)ncc1Cl` (centres unmarked) [Example 1735, 2-[5-Chloro-2-(9-ethyl-7-hydroxy-7-hydroxymethyl-6,7,8,9-tetrahydro-5-oxa-9-aza-benzocyclohepten-3-ylamino)-pyrimidin-4-ylamino]-3-fluoro-N-prop-2-ynyl-benzamide], the IC50 in experiment [1] (setting [3]) and in experiment [2] (setting [4]) was 100 to 1000 nM throughout.

For the molecule `CNC(=O)c1ccc2c(c1Nc1nc(Nc3ccc4c(c3)NC(=O)CCC4)ncc1Cl)OCO2` [Example 1482, 4-[5-Chloro-2-(2-oxo-2,3,4,5-tetrahydro-1H-benzo[b]azepin-8-ylamino)-pyrimidin-4-ylamino]-benzo[1,3]dioxole-5-carboxylic acid methylamide], the IC50 fell in the range of 100 to 1000 nM in experiment [1] (setting [3]) and 1000 to 10000 nM in experiment [2] (setting [4]).

With `OC1CCc2ccc(Nc3ncc(Cl)c(Nc4ccccc4-n4cccn4)n3)cc2CC1` (centres unmarked) [Example 1035, 2-[5-Chloro-4-(2-pyrazol-1-yl-phenylamino)-pyrimidin-2-ylamino]-6,7,8,9-tetrahydro-5H-benzocyclohepten-7-ol], the IC50 in experiment [1] (setting [5]) was less than 100 nM; in experiment [2] (setting [6]) it was 100 to 1000 nM.

For `COCCN1CCc2ccc(Nc3ncc(Cl)c(NC4CCCCC4)n3)cc2CC1` [Example 1377, 5-Chloro-N(4)-cyclohexyl-N(2)-[3-(2-methoxy-ethyl)-2,3,4,5-tetrahydro-1H-benzo[d]azepin-7-yl]-pyrimidine-2,4-diamine], the IC50 in experiment [1] (setting [5]) was less than 100 nM; in experiment [2] (setting [6]), 100 to 1000 nM.

`COc1cc2c(cc1Nc1ncc(Cl)c(N[C@@H]3CCCC[C@H]3NS(C)(=O)=O)n1)CCN(C(=O)C(F)(F)F)CC2` [Example 247, N-((1R,2R)-2-{5-Chloro-2-[8-methoxy-3-(2,2,2-trifluoro-acetyl)-2,3,4,5-tetrahydro-1H-benzo[d]azepin-7-ylamino]-pyrimidin-4-ylamino}-cyclohexyl)-methanesulfonamide]: the IC50 in experiment [1] (setting [7]) is less than 100 nM; in experiment [2] (setting [8]), greater than 10000 nM.

For the molecule `CCN1C(=O)C(N)CCc2c1ccc(Nc1ncc(Cl)c(Nc3ccccc3S(=O)(=O)N(C)C)n1)c2OC` (centres unmarked) [Example 1336, 2-[2-(3-Amino-1-ethyl-6-methoxy-2-oxo-2,3,4,5-tetrahydro-1H-benzo[b]azepin-7-ylamino)-5-chloro-pyrimidin-4-ylamino]-N,N-dimethyl-benzenesulfonamide], the IC50 in experiment [1] (setting [5]) is less than 100 nM; in experiment [2] (setting [6]), greater than 10000 nM.

On to `CN1C(=O)CCCc2cc(Nc3ncc(Cl)c(Nc4c(F)cccc4C(=O)NCCC#N)n3)ccc21` [Example 1042, 2-[5-Chloro-2-(1-methyl-2-oxo-2,3,4,5-tetrahydro-1H-benzo[b]azepin-7-ylamino)-pyrimidin-4-ylamino]-N-(2-cyano-ethyl)-3-fluoro-benzamide], for which the IC50 in experiment [1] (setting [5]) was 100 to 1000 nM; in experiment [2] (setting [6]) it was less than 100 nM.

Regarding `C#CCN1CCc2ccc(Nc3ncc(Cl)c(Nc4ccc(N5CCOCC5)cc4OC)n3)cc2CC1` [Example 324, 5-Chloro-N*4*-(2-methoxy-4-morpholin-4-yl-phenyl)-N*2*-(3-prop-2-ynyl-2,3,4,5-tetrahydro-1H-benzo[d]azepin-7-yl)-pyrimidine-2,4-diamine], the results for the IC50 in experiment [1] (setting [7]) and in experiment [2] (setting [8]) were less than 100 nM and 1000 to 10000 nM, respectively.

For the molecule `CCN1C(=O)CCC(C)(C)c2ccc(Nc3ncc(Cl)c(Nc4ccc(N5CCOCC5)cc4S(=O)(=O)N(C)C)n3)cc21` [Example 851, 2-[5-Chloro-2-(1-ethyl-5,5-dimethyl-2-oxo-2,3,4,5-tetrahydro-1H-benzo[b]azepin-8-ylamino)-pyrimidin-4-ylamino]-N,N-dimethyl-5-morpholin-4-yl-benzenesulfonamide], the IC50 in experiment [1] (setting [9]) is less than 100 nM; in experiment [2] (setting [10]), 1000 to 10000 nM.

`CNC(=O)c1ccccc1Nc1nc(Nc2ccc3c(c2)CCN(C)CC3)ncc1Cl` [Example 46, 2-[5-Chloro-2-(3-methyl-2,3,4,5-tetrahydro-1H-benzo[d]azepin-7-ylamino)-pyrimidin-4-ylamino]-N-methyl-benzamide]: the IC50 in experiment [1] (setting [7]) and in experiment [2] (setting [8]) was less than 100 nM each time.

As for `CNS(=O)(=O)c1ccccc1Nc1nc(Nc2ccc3c(c2)CCCC(=O)N3)ncc1Cl` [Example 5, 2-[5-Chloro-2-(2-oxo-2,3,4,5-tetrahydro-1H-benzo[b]azepin-7-ylamino)-pyrimidin-4-ylamino]-N-methyl-benzenesulfonamide], the IC50 in experiment [1] (setting [7]) and in experiment [2] (setting [8]) was less than 100 nM in each case.

In the case of `CNC(=O)c1ccccc1Nc1nc(Nc2ccc3c(c2)C2CCC3CN(C(=O)C(F)(F)F)C2)ncc1Cl` (centres unmarked) [Example 276, 2-{5-Chloro-2-[10-(2,2,2-trifluoro-acetyl)-10-aza-tricyclo[6.3.2.0*2,7*]trideca-2,4,6-trien-4-ylamino]-pyrimidin-4-ylamino}-N-methyl-benzamide], the IC50 was 100 to 1000 nM in experiment [1] (setting [7]) and less than 100 nM in experiment [2] (setting [8]).

With `CCN1C(=O)CCCc2c1ccc(Nc1ncc(Cl)c(NC3C4C=CC(C4)C3C(N)=O)n1)c2OC` (stereo not drawn) [Example 121, (2-exo,3-exo)-3-[5-Chloro-2-(1-ethyl-6-methoxy-2-oxo-2,3,4,5-tetrahydro-1H-benzo[b]azepin-7-ylamino)-pyrimidin-4-ylamino]-bicyclo[2.2.1]hept-5-ene-2-carboxylic acid amide], the values for the IC50 in experiment [1] (setting [7]) and in experiment [2] (setting [8]) were less than 100 nM and greater than 10000 nM, respectively.

As to `COCCN1C(=O)CCC(C)(C)c2ccc(Nc3ncc(Cl)c(Nc4ccc(N5CCOCC5)cc4OC)n3)cc21` [Example 1584, 8-[5-Chloro-4-(2-methoxy-4-morpholin-4-yl-phenylamino)-pyrimidin-2-ylamino]-1-(2-methoxy-ethyl)-5,5-dimethyl-1,3,4,5-tetrahydro-benzo[b]azepin-2-one], the IC50 in experiment [1] (setting [3]) was less than 100 nM; in experiment [2] (setting [4]) it was 1000 to 10000 nM.

Regarding `COCCN1CCc2ccc(Nc3ncc(Cl)c(Nc4ccccc4C(=O)NCCN4CCCC4)n3)cc2CC1` [Example 1416, 2-{5-Chloro-2-[3-(2-methoxy-ethyl)-2,3,4,5-tetrahydro-1H-benzo[d]azepin-7-ylamino]-pyrimidin-4-ylamino}-N-(2-pyrrolidin-1-yl-ethyl)-benzamide], the IC50 in experiment [1] (setting [5]) and in experiment [2] (setting [6]) was 100 to 1000 nM in each case.

Consider `COCCN1CCN(C)c2cc(Nc3ncc(Cl)c(N[C@@H]4CCCC[C@H]4NS(C)(=O)=O)n3)c(OC)cc2C1` [Example 490, N-((1R,2R)-2-{5-Chloro-2-[7-methoxy-4-(2-methoxy-ethyl)-1-methyl-2,3,4,5-tetrahydro-1H-benzo[e][1,4]diazepin-8-ylamino]-pyrimidin-4-ylamino}-cyclohexyl)-methanesulfonamide], for which the IC50 in experiment [1] (setting [7]) was less than 100 nM; in experiment [2] (setting [8]) it was greater than 10000 nM.

With `COCCN1CCc2ccc(Nc3ncc(Cl)c(Nc4ccccc4-c4cccc(C)n4)n3)cc2CC1` [Example 1009, 5-Chloro-N*2*-[3-(2-methoxy-ethyl)-2,3,4,5-tetrahydro-1H-benzo[d]azepin-7-yl]-N*4*-[2-(6-methyl-pyridin-2-yl)-phenyl]-pyrimidine-2,4-diamine], the IC50 in experiment [1] (setting [9]) was less than 100 nM; in experiment [2] (setting [10]), 100 to 1000 nM.

In the case of `CN1CCN(S(C)(=O)=O)Cc2ccc(Nc3ncc(Cl)c(Nc4ccccc4NS(C)(=O)=O)n3)cc21` [Example 474, N-{2-[5-Chloro-2-(4-methanesulfonyl-1-methyl-2,3,4,5-tetrahydro-1H-benzo[e][1,4]diazepin-8-ylamino)-pyrimidin-4-ylamino]-phenyl}-methanesulfonamide], the IC50 in experiment [1] (setting [7]) is less than 100 nM; in experiment [2] (setting [8]), 100 to 1000 nM.

`COCCN1CCc2cc(Nc3ncc(Cl)c(NC4(C(=O)NCC#N)CC4)n3)c(OC)cc2CC1` [Example 1197, 1-{5-Chloro-2-[8-methoxy-3-(2-methoxy-ethyl)-2,3,4,5-tetrahydro-1H-benzo[d]azepin-7-ylamino]-pyrimidin-4-ylamino}-cyclopropanecarboxylic acid cyanomethyl-amide]: the IC50 is 1000 to 10000 nM in experiment [1] (setting [5]) and greater than 10000 nM in experiment [2] (setting [6]).
